Test results: the METLIN SMRT retention time set (Domingo-Almenara et al. 2019)

Experiment: gradient 5% acetonitrile 3 min, to 50% in 2 min, to 85% in 15 min, held 3 min, 100 µL/min
Conditions: column: Zorbax Extend-C18 2.1 x 50 mm; eluents: water / acetonitrile, 0.1% formic acid
Summary of the method: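 Data were gathered over 3 months by HPLC coupled to a quadrupole time-of-flight mass spectrometer, operated in positive and negative ionization mode. Mixtures of ~100 pure standards ran on a Zorbax Extend-C18 column (2.1 × 50 mm, 1.8 μm) at 100 μL/min, with water and acetonitrile each containing 0.1% formic acid and dead and dwell volumes of 40 μL and 900 μL. Retention time was read from adduct peaks picked by computer and checked manually.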

Cc1ccc(CNC(=O)C2(C)CCCN(C(=O)Nc3ccccc3C(F)(F)F)C2)cc1 (stereo not drawn)
RP-LC retention time: 1010 s

O=C(c1ccc(-c2ccsc2)nc1)N1CCN(c2ccccn2)CC1
RP-LC retention time: 604 s

CCOC(=O)N1CCN(CC(O)COc2c(F)cc(Br)cc2F)CC1 (stereo not drawn)
RP-LC retention time: 591 s

CC(C)(C)c1ccc(C(=O)N(Cc2ccc(Br)o2)C2CCS(=O)(=O)C2)cc1 (stereo not drawn)
RP-LC retention time: 1110 s

C[C@@H](Cc1ccc(OCC(=O)O)cc1)NC[C@@H](O)c1cccc(Cl)c1
RP-LC retention time: 704 s

COC1CCN(C(=O)NC(C)C)CC1
RP-LC retention time: 599 s

CCCNC(=O)C1CCCN(c2nc3ncn(CC(=O)Nc4cc(F)ccc4F)c(=O)c3s2)C1 (stereo not drawn)
RP-LC retention time: 716 s

O=C(NCCCN1CCc2ccccc2C1)C1CCCN(c2nnc(-n3cccc3)s2)C1 (stereo not drawn)
RP-LC retention time: 593 s

Cc1ccc(NC(=O)N2CCC3(CC2)NC(=O)c2ccccc2O3)cc1F
RP-LC retention time: 799 s

CCCNC(=O)Cc1c(C)nn(-c2nc(-c3ccc(Cl)cc3)cs2)c1C
RP-LC retention time: 1110 s

O=C(NCCCn1ccnc1)C(=O)NC1CCCCC1
RP-LC retention time: 545 s

O=C(NCc1ccc(F)c(Cl)c1)C1CCN(c2ncnc3c2oc2ccccc23)CC1
RP-LC retention time: 781 s

O=C(Nc1ccc2c(c1)OCCO2)c1coc2ccccc12
RP-LC retention time: 826 s

O=C(CCc1c(-c2ccc(Cl)cc2)nc2ccccn12)N1CCOCC1
RP-LC retention time: 587 s

CC1CCN(CCNC(=O)c2nnc(-c3ccc(S(=O)(=O)N4CCOCC4)cc3)o2)CC1
RP-LC retention time: 629 s

COc1cccc(NC(=O)N2CCCC(C)(C(=O)NCc3ccccc3C)C2)c1 (stereo not drawn)
RP-LC retention time: 890 s

Cn1ncc2c3ccccc3n(CC(=O)N3CCN(c4ccccn4)CC3)c2c1=O
RP-LC retention time: 591 s

O=C(C1CCCN(c2nc3cccnc3s2)C1)N1CCN(c2ccccc2)CC1 (stereo not drawn)
RP-LC retention time: 844 s

Cn1cc(-c2cc3n(n2)CCCN3C(=O)CCC(=O)N2CCN(c3ccccn3)CC2)c2ccccc21
RP-LC retention time: 621 s

Cc1csc(-n2nc(C)c(CC(=O)Nc3cccc(Cl)c3)c2C)n1
RP-LC retention time: 1040 s

O=C(CN1C(=O)COc2ccc(C(=O)N3CCN(c4ccccn4)CC3)cc21)N1CCCC1
RP-LC retention time: 572 s

O=C(Cn1cnc2nc(N3CCCC(C(=O)NC4CC4)C3)sc2c1=O)Nc1ccc(F)cc1F (stereo not drawn)
RP-LC retention time: 673 s

COc1ccc(NC(=O)N2C[C@@H](F)C[C@H]2C(=O)N2CCCCC2)cc1F
RP-LC retention time: 660 s

COc1cccc(CNC(=O)Cn2c(N3CCCC3)nc(C)cc2=O)c1
RP-LC retention time: 770 s

CC(=O)Nc1nsc(N2CCC(C(=O)N3CCN(c4ccc(F)cc4)CC3)CC2)n1
RP-LC retention time: 680 s

Cc1cc(=O)n(CC(=O)Nc2ccccc2Cl)c(N2CCCC2)n1
RP-LC retention time: 661 s

CCc1ccccc1NC(=O)Cn1ncc2c(N3CCN(c4ccccn4)CC3)ncnc21
RP-LC retention time: 608 s

Cc1ccc2c(c1)N(Cc1ccccc1)N=C(C(=O)N1CCCC1)S2(=O)=O
RP-LC retention time: 876 s

Cc1cc(C)c2c(N3CCOCC3)nc(C(=O)NCCC(C)C)nc2n1
RP-LC retention time: 648 s

Cc1ccc(F)c(NS(=O)(=O)c2cc3n(c2)CCCNC3=O)c1
RP-LC retention time: 654 s

CCOc1ccc(C2Cn3nnc(-c4nc(-c5ccccc5)no4)c3CO2)cc1 (stereo not drawn)
RP-LC retention time: 1200 s

CC(C)(C)NC(=O)N1CC(n2cc(C(=O)N3CCOCC3)nn2)C1
RP-LC retention time: 646 s

CCOC(=O)C1=C(C)NC(=O)NC1c1ccc(OCC(=O)N2CCCCC2)cc1 (stereo not drawn)
RP-LC retention time: 682 s

Cn1nnc(-c2ccc(-c3ccc(N4C[C@@H](CO)OC4=O)cc3F)cn2)n1
RP-LC retention time: 735 s

Cn1nnc2ccc(-c3noc(-c4ccc(F)cc4)n3)cc21
RP-LC retention time: 981 s

CC(C)N1C(=O)CSc2cnn(CC(=O)NC3CCCC3)c(=O)c21
RP-LC retention time: 688 s

O=C(CN1CCN(C(=O)Nc2ccc(Br)cc2)CC1=O)NC1CCCCC1
RP-LC retention time: 735 s

COc1ccc2c(c1)C1(CCN(S(=O)(=O)c3cc(F)cc(F)c3)C1)C(=O)N2C (stereo not drawn)
RP-LC retention time: 940 s

CCCS(=O)(=O)N1C[C@@H](COC)[C@H](c2ccncc2)C1
RP-LC retention time: 536 s

Cc1nnc2c(=O)n(CC(=O)NCc3ccccc3C(F)(F)F)c3cccnc3n12
RP-LC retention time: 734 s

COc1ccc(CNC(=O)C2(C)CCN(C(=O)Nc3ccc(F)cc3)CC2)cc1
RP-LC retention time: 761 s

CCC(C(=O)Nc1cc(-c2cn3cccnc3n2)ccc1C)c1ccccc1 (stereo not drawn)
RP-LC retention time: 680 s

COCCNC(=O)C1CCN(c2nc3ccc(-c4ccccc4)nc3s2)CC1
RP-LC retention time: 832 s

CCN1CCCn2cc(S(=O)(=O)Nc3ccc(C)cc3Cl)cc2C1=O
RP-LC retention time: 775 s

COc1cccc(-c2cc(N3CCN(C(=O)Nc4ccc5c(c4)OCCO5)CC3)ncn2)c1
RP-LC retention time: 660 s

Cc1ccc(S(=O)(=O)n2nc(OC(=O)c3ccc(Cl)cc3Cl)cc2N)cc1
RP-LC retention time: 1030 s

O=C(Cn1cnc2c(sc3nc(-c4ccccc4)ccc32)c1=O)Nc1cccc(Br)c1
RP-LC retention time: 1110 s

CCOCCCNC(=O)N1CC(c2nc(C)no2)C2(CCOCC2)C1 (stereo not drawn)
RP-LC retention time: 616 s

CCOC(=O)c1ccc(NC(=O)Cn2nc3n(c2=O)CCCC3)cc1
RP-LC retention time: 676 s

COc1ccc(C(=S)N2CCN(c3ccccc3Cl)CC2)cc1OC
RP-LC retention time: 1260 s

Cc1ccc(S(=O)(=O)N2CCC(CC(=O)NCCN(C)Cc3ccccc3)CC2)cc1
RP-LC retention time: 683 s

O=C(Nc1ncc(-c2ccccc2)s1)c1ccccc1Br
RP-LC retention time: 936 s

Cc1ccc(N2C(=O)C3N=NN(Cc4nc(-c5ccc6c(c5)OCO6)no4)C3C2=O)cc1Cl (stereo not drawn)
RP-LC retention time: 1010 s

CC(C)NC(=O)CCC(=O)N1CCCn2nc(-c3cn(C)c4ccccc34)cc21
RP-LC retention time: 718 s

COc1ccc(NS(=O)(=O)c2ccc(-c3nnc(C4CCC4)o3)o2)cc1F
RP-LC retention time: 868 s

CC(C)NC(=O)N(C1CC1)C1CCOC2(CCN(C(=O)C3CCCC3)CC2)C1 (stereo not drawn)
RP-LC retention time: 814 s

CC1CCCCN1CCNS(=O)(=O)c1ccccc1-c1nc(-c2ccc(F)cc2)no1 (stereo not drawn)
RP-LC retention time: 755 s

O=S(=O)(c1ccccc1)N1CCN(c2cnn3c(C4CC4)nnc3c2)CC1
RP-LC retention time: 698 s
